Data: patent US11022604B2, “Dock derived compound against laminin receptor (37 LR) and uses thereof” (Purdue Research Foundation, priority 2017, dated 2021)
Where two headings read alike, the source gives them in different places.

Tests used:
[1] = tested on: PC-3 androgen independent metastatic prostate cancer cells; assay: Cell viability screen (CCK-8), PC-3 cells; assay type: cell-based; details: CCK-8, 96 hours, read-out: IC50, inhibition of cell viability
Description: (§1) FIGS. 2A-2H. Dose response curves. Does response curves for cell lines treated with 6, 10.5, 18.6, 32.4, 57.5 and 100 μM of compound (log) for 96 hours using % cell viability derived from CCK-8 absorbance readings at 450 nm (n=3, mean±SEM). A DMSO equivalent control (n=2±SEM) was also included for each cell line tested: Ea.hy.926 endothelial cells (Endo), LNCaP androgen dependent metastatic prostate cancer cells, TC2-Ras mouse prostate cancer cells, PC-3 androgen independent metastatic prostate cancer cells, and SH-SY5Y neruoblastoma cells. […]
(§2) Cell Viability Screen. […] Cell viability was measured by using the cell counting kit-8 (CCK-8, Dojindo). […] CCK-8 absorbance was measured at 450 nm using a GloMax Multimode Reader (Promega). Readings were performed the day after seeding to normalize for variations in cell seeding and after 96 hours of compound treatment. After each reading, CCK-8 media was removed and replaced with media containing compound as described previously. […] As described previously, an initial baseline CCK-8 reading was performed at 24 hours post seeding to correct for variations in seeding density. First, 450 nm values for each well were subtracted from media only readings to correct for baseline absorbance. Then, the 96 hour readings were normalized to their respective 24 hour readings to control for seeding variation. […]

[2] = tested on: LNCaP androgen dependent metastatic prostate cancer cells; assay: Cell viability screen (CCK-8), LNCaP cells; assay type: cell-based; details: Homo sapiens, CCK-8, 96 hours, read-out: IC50, inhibition of cell viability
Description: as §1, §2

## O=C(c1cc(F)cc2c1OCOC2)N1CCN(C2c3ccccc3-c3ccccc32)CC1 [Compound C3, [4-(9h-fluoren-9-yl)piperazino](6-fluoro-4h-1,3-benzodioxin-8-yl)methanone]
[1]
  IC50: ~1000 nM
[1]; Homo sapiens, PC-3, 96 h
  IC50: ~800 nM
[2]
  IC50: 10300 nM
